Where “and” joins values, the source holds several entries; their conditions need not be identical. Equal entries are not always repeated.
Assays:
[1] = system: LPS-stimulated RAW264.7 macrophages; assay: NO production of LPS-induced RAW264.7 (Griess method); type: cell-based; settings: 40 μg/mL; LPS 10 ng/mL; LPS only 22 μM, baseline 12.8 μM
[2] = system: carrageenan induced paw edema; assay: carrageenan-induced rat paw edema; type: in vivo; settings: for % Inhibition of Edema ± Standard Error / Mean Edema Thickness: 10 mg/kg indomethacin mol equivalent i.p.; for Mean Edema Thickness: ± standard error; for % Potency: % inhibition of edema thickness relative to indomethacin at 3 h
Method: Anti-inflammatory activity screening
The anti-inflammatory activity of the tested compounds was determined in-vivo by the acute carrageenan induced paw edema standard method in rats. Adult Wister rats of either sex (pregnant female animals were excluded) weighing 120–150 g were divided into 19 groups of 6 animals each. The tested compounds dissolved in DMSO, at a dose of 10 mg kg-1 (rat body […]
inflammation. The control group was given DMSO only. Paw edema was induced by subcutaneous injection of freshly prepared 1% solution of carrageenan in saline (0.9%, 0.1 ml per rat) into subplantar tissue of the right hind paw of rats. The thickness of the paw was measured (in mm) after successive time intervals (1, 2, 3, 4 and 24 h) and compared with the initial hind paw thickness of each rat for determining the edema thickness. Data were collected, checked, revised and analyzed (SPSS 16). Quantitative variables from normal distribution were expressed as means ± SE “standard error”. The anti-inflammatory activity was expressed as percentage inhibition of edema thickness in treated animals in comparison with the control group according to eqn. (1) […]
% Inhibition of edema= Vc-Vt x 100 … .. (1)
Where, Vc and Vt are the means of edema paw thickness for the control and tested compound treated animal groups, respectively.
The potency of the tested compounds was expressed as % inhibition of edema thickness […]
% Potency = % inhibition of edema for the tested compound treated group x 100 … . (2)

IL-6 mRNA = settings: 40 μg/mL; in comparison to LPS-stimulated cells only
Method: (§1) For this purpose, the mRNA levels of IL-6, TNF-α, and iNOS were measured using real-time qPCR (RT-qPCR).
(§2) Treatment of LPS-stimulated RAW264.7 macrophages was done with 40 µg/mL of the isolated
(§3) Evaluation of inflammatory mRNA expression levels
(§4) Inflammatory mRNA expression levels were evaluated using RT-qPCR (Applied Biosystems, CA, USA). Total RNA was extracted by lysing RAW264.7 cells using Qiazol Lysis Reagent. The extracted RNA was used to synthesize cDNA using RevertAid First Strand cDNA synthesis kit according to manufacturer’s protocol. The cDNA was then added with forward and reverse
(§5) primers, nuclease free water and maxima SYBR green mix (Thermo Fisher Scientific, MA, USA).
(§6) The inflammation-related genes of mRNA expression levels are as follows: IL-6, TNF-α, and
(§7) iNOS. All expression was normalized to GAPDH (endogenous control) and relative fold mRNA
(§8) expression levels were calculated using the comparative 2 −ΔΔCT method. The PCR reaction consists
(§9) of initiation stage at 95 °C for 10 min, after that 40 PCR cycles of d enaturation stage for 15 s at 95
(§10) °C and annealing and extension for 1 min at 60 °C.

TNF-α mRNA = settings: 40 μg/mL; in comparison to LPS-stimulated cells only
Method: as §1, §2, §3, §4, §5, §6, §7, §8, §9, §10

[3] = system: acetic acid-induced abdominal writhing; assay: acetic acid-induced abdominal writhing assay (peripheral analgesic); type: in vivo, mice; settings: for % Inhibition/Protection / Writing Reflex ± SE: 10 mg/kg indomethacin mol equivalent i.p.; for Writing Reflex ± SE: number of writhing counted for 30 min; for Potency: % inhibition/protection compared to indomethacin
Method: Peripheral analgesic testing
Peripheral analgesic activity was measured by the standard acetic acid-induced writhing […]
One hour after intraperitoneally (i,p.) administration of 10 mg kg−1 (mice body weight) […]
distilled/sterile water by the aid of two drops of Tween 80, each mouse was injected with 0.1 ml of 1% acetic acid solution i.p. The control group animals were given sterile/distilled water only with few drops of Tween 80. Starting 5 min after the acetic acid injection, the number of muscular contractions in each mouse was counted for 30 min. A significant reduction in the number of writhing by any test compound as compared to control animals was considered as a positive analgesic response. Percentage protection was calculated according to equ. (3), where n stands for the average number of writhing in the control group and n' is the average number of writhing in the treated group. The % potency was calculated by equ. (4) (Table 2).
% Inhibition/protection = n−n′ x100 … . (3)

hot plate latency = assay: hot plate assay (central analgesic); type: in vivo, mice; settings: for % Protection / Latency Period ± SE: 10 mg/kg indomethacin mol equivalent i.p.; for Latency Period ± SE: cutoff 15 sec; for Potency: at 120 min compared to indomethacin
Method: The % potency was calculated by equ. (4) (Table 2). […]
% Potency = % protection of the tested compound x 100 ……. (4) […]
Central analgesic (hot plate) testing
The standard hot plate technique was undertaken by in vivo standard hot plate test [ 1,2]. […]
by placing them on a hot plate maintained at 55 ± 1 °C, 30 min. […]
suspended in sterile/distilled water by the ai d of two drops of Tween 80, and recording the reaction time in seconds for forepaw licking or jumping. The control group animals were given sterile/distilled water only with few drops of Tween 80. The maximum cutoff time was chosen as 15 sec. to prevent tissue damage. Response latencies were measured 30, 60, 90 and 120 min. after the application. The % protection was calculated by equ. ( 5) where, T1, T0 are the latency time mean of the tested compound and control group, respectively (Table 3).

gastric mucosa = settings: both, albino, mouse, in vivo, 3 days; for % Incidence of Ulcer Divided by 10 / Average Severity of Ulcer / Average of Ulcer Number / Number of Animals with Ulcer: po, 10 mg/kg
Method: The ulcerogenic liability was determined in albino mice obeying the standard method.
Animals of either sex (pregnant females were excluded) weighing 20 –25 g were divided into 8 groups of 6 animals each. The animals fasted 18 h before drug administration.
80 administered orally for three successive days to fasted animals at a dose of 10 mg kg-1 (animal […]
The control group animals were given water only with few drops of Tween 80. The animals were sacrificed by cervical dislocation and the stomach was removed, opened along the greater curvature and rinsed with saline. The gastric mucosa was examined with a magnifying lens (10x) for the presence of lesions and ero sions. The ulcer index was calculated (Table 4) and the degree of ulcerogenic effect was expressed in terms of.
1. The percentage incidence of ulcers divided by 10.
2. Average number of ulcers per stomach.
3. Average severity of ulcers.
The ulcer index is the value that resulted from the sum of the above three values. […]

mice = assay: toxicological bioassay; type: in vivo; settings: five times the anti-inflammatory dose (50 mg/kg indomethacin mol equivalent); recorded 24 h post-administration
Method: Five times the anti-inflammatory dose was orally administrated. […]
5a, 5b, 5d, 5e) was determined utilizing the standard method in mice. Albino mice weighing 20–25 g were divided into 6 groups of 6 mice each. Administrations of the tested compounds dissolved in distilled water by the aid of few drops of Tween 80 were given intraperitoneally in 50 […]
inflammatory dosage). The control group was given water only with few drops of Tween 80. The toxic symptoms and mortality rates were recorded 24 h post -administration in each group.

Row | SMILES | % Inhibition of Edema ± Standard Error ([2]; 1 h) | % Inhibition of Edema ± Standard Error ([2]; 2 h) | % Inhibition of Edema ± Standard Error ([2]; 4 h) | % Inhibition of Edema ± Standard Error ([2]; 24 h) | % Inhibition/Protection [3] | Writing Reflex ± SE [3] | % Protection (hot plate latency; after 30 min) | Latency Period ± SE (hot plate latency; after 30 min) | % Protection (hot plate latency; after 60 min) | Latency Period ± SE (hot plate latency; after 60 min) | % Protection (hot plate latency; after 90 min) | Latency Period ± SE (hot plate latency; after 90 min) | % Protection (hot plate latency; after 120 min) | Latency Period ± SE (hot plate latency; after 120 min) | % Incidence of Ulcer Divided by 10 (gastric mucosa) | Average Severity of Ulcer (gastric mucosa) | Average of Ulcer Number (gastric mucosa) | Number of Animals with Ulcer (gastric mucosa) | Potency [3] | Potency (hot plate latency) | other results
1 | CC(C)Cc1ccc(C(C)C(=O)OCc2cn(-c3ccc(Cl)cc3)nn2)cc1 (centres unmarked) [Compound 5b, (1-(4-Chlorophenyl)-1H-1,2,3-triazol-4-yl)methyl 2-(4-isobutylphenyl)propanoate] | 58.3 ± 0.7% | 69.6 ± 2.1% | 66.8 ± 1.6% | 8.4 ± 1.2% | 87.5% | 5.0 ± 0.9 | 84.1% | 12.30 ± 1.6 s | 41.3% | 10.27 ± 1.9 s | 25.0% | 11.14 ± 1.5 s | 27.1% | 11.45 ± 2.0 s | 0 | 0 | 0 | 0 | – | – | LPS-stimulated NO production (nitrite) [1]: 4.88 ± 1 µM; % Inhibition of Edema ± Standard Error ([2]; 3 h, 10 mg/kg): 94.5% and 94.5 ± 0.4%; Mean Edema Thickness ([2]; 3 h): 0.040 ± 0.01 mm; reduction in IL-6 mRNA levels (IL-6 mRNA): 42%; reduction in TNF-α mRNA levels (TNF-α mRNA): 82%; Ulcer Index (gastric mucosa): 0; toxic symptoms or mortality (mice): No toxic symptoms or mortality
2 | COc1ccc2c(c1)c(CC(=O)OCc1cn(-c3ccc(Cl)cc3)nn1)c(C)n2C(=O)c1ccc(Cl)cc1 [Compound 8b, (1-(4-Chlorophenyl)-1H-1,2,3-triazol-4-yl)methyl 2-(1-(4-chlorobenzoyl)-5-methoxy-2-methyl-1H-indol-3-yl)acetate] | – | – | – | – | 46.3% | 21.5 ± 1.5 | 2.4% | 6.84 ± 1.4 s | 14.3% | 8.31 ± 1.9 s | 11.2% | 9.91 ± 1.7 s | 9.7% | 9.88 ± 2.0 s | – | – | – | – | 64.5% | 17.2 | anti-inflammatory efficacy (in words) ([2]; carrageenan-induced rat paw edema): no anti-inflammatory efficacy
3 | COc1ccc2c(c1)c(CC(=O)OCc1cn(-c3ccccc3OC)nn1)c(C)n2C(=O)c1ccc(Cl)cc1 [Compound 8e, (1-(2-Methoxyphenyl)-1H-1,2,3-triazol-4-yl)methyl 2-(1-(4-chlorobenzoyl)-5-methoxy-2-methyl-1H-indol-3-yl)acetate] | 0.00 ± 0.2% | 6.5 ± 1.0% | 4.2 ± 1.9% | 0.00 ± 0.3% | 80.8% | 7.7 ± 1.3 | 69.2% | 11.30 ± 1.1 s | 82.0% | 13.23 ± 1.6 s | 27.5% | 11.36 ± 2.5 s | 28.9% | 11.61 ± 2.2 s | – | – | – | – | 112.5% | 51.2 | –
4 | COc1ccc2c(c1)c(CC(=O)O)c(C)n2C(=O)c1ccc(Cl)cc1 [Indo, Indomethacin, reference compound] | – | – | – | – | 71.8% | 11.3 ± 1.6 | 87.1% | 12.50 ± 2.0 s | 80.9% | 13.15 ± 1.6 s | 57.9% | 14.07 ± 1.2 s | 56.5% | 14.10 ± 1.9 s | 10 | 1.67 | 2 | 6/6 | 100.0% | 100 | % Inhibition of Edema ± Standard Error ([2]; 24 h, 10 mg/kg): 12.0 ± 2.1%; % Inhibition of Edema ± Standard Error ([2]; 24 h, listed as indomethacin, 10 mg/kg): 12.0%; % Potency [2]: 100%; Potency ([3]; listed as indomethacin): 100%
5 | CC(C)Cc1ccc(C(C)C(=O)O)cc1 (centres unmarked) [Ibu, Ibuprofen, reference compound] | 44.4 ± 2.5% | 43.5 ± 2.9% | 21.0 ± 1.1% | – | 58.5% | 16.6 ± 0.7 | 61.7% | 10.80 ± 0.8 s | 51.3% | 11.00 ± 1.3 s | 33.6% | 11.90 ± 1.5 s | 54.3% | 13.90 ± 2.2 s | 3.33 | 0.67 | 0.33 | 2/6 | 81.5% | 96.1 | % Inhibition of Edema ± Standard Error ([2]; 3 h): 78.8 ± 0.9%; % Inhibition of Edema ± Standard Error ([2]; 24 h, 10 mg/kg): 11.2 ± 0.6%; % Inhibition of Edema ± Standard Error ([2]; 24 h, listed as ibuprofen, 10 mg/kg): 11.2%; Mean Edema Thickness ([2]; 24 h): 0.817 ± 0.07 mm; % Potency [2]: 97.2%

Source: article PMC9965125, “New NSAID Conjugates as Potent and Selective COX-2 Inhibitors: Synthesis, Molecular Modeling and Biological Investigation” (Molecules, 2023)
